Measurements as given in PubChem BioAssay AID2060888 (Molecular Pharmacology Branch, DTP, NCI, 2025).

Test system: 695427-040-R-J1-PDC complex spheroid viability
Experiment: Anticancer human tumor 695427-040-R-J1-PDC patient-derived colon adenocarcinoma cell line growth inhibition [RAS]
Conditions: for IC50: curve of first compound; for viability, T/C: stronger effect = lower value; active means viability on the fitted dose curve at most 10% of control; inactive means the rest
Procedure, shortened: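 Multi-cell-type spheroids: tumor cells plus HUVEC endothelial cells and mesenchymal stem cells. RAS-pathway inhibitors were combined with targeted agents, each dosed in half-log steps down from clinical Cmax, or from 10 microM when Cmax was unknown.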

[1] = second compound 0.00316 µM, first compound 0.0316 µM
[2] = second compound 0.00316 µM, first compound 0.1 µM
[3] = second compound 0.00316 µM, first compound 0.316 µM
[4] = second compound 0.00316 µM, first compound 1 µM
[5] = second compound 0.00316 µM, first compound 3.16 µM
[6] = second compound 0.00316 µM, first compound 10 µM
[7] = second compound 0.01 µM, first compound 0.0316 µM
[8] = second compound 0.01 µM, first compound 0.1 µM
[9] = second compound 0.01 µM, first compound 0.316 µM
[10] = second compound 0.01 µM, first compound 1 µM
[11] = second compound 0.01 µM, first compound 3.16 µM
[12] = second compound 0.01 µM, first compound 10 µM
[13] = second compound 0.0316 µM, first compound 0.0316 µM
[14] = second compound 0.0316 µM, first compound 0.1 µM
[15] = second compound 0.0316 µM, first compound 0.316 µM
[16] = second compound 0.0316 µM, first compound 1 µM
[17] = second compound 0.0316 µM, first compound 3.16 µM
[18] = second compound 0.0316 µM, first compound 10 µM
[19] = second compound 0.1 µM, first compound 0.0316 µM
[20] = second compound 0.1 µM, first compound 0.1 µM
[21] = second compound 0.1 µM, first compound 0.316 µM
[22] = second compound 0.1 µM, first compound 1 µM
[23] = second compound 0.1 µM, first compound 3.16 µM
[24] = second compound 0.1 µM, first compound 10 µM
[25] = second compound 0.316 µM, first compound 0.0316 µM
[26] = second compound 0.316 µM, first compound 0.1 µM
[27] = second compound 0.316 µM, first compound 0.316 µM
[28] = second compound 0.316 µM, first compound 1 µM
[29] = second compound 0.316 µM, first compound 3.16 µM
[30] = second compound 0.316 µM, first compound 10 µM
[31] = second compound 1 µM, first compound 0.0316 µM
[32] = second compound 1 µM, first compound 0.1 µM
[33] = second compound 1 µM, first compound 0.316 µM
[34] = second compound 1 µM, first compound 1 µM
[35] = second compound 1 µM, first compound 3.16 µM
[36] = second compound 1 µM, first compound 10 µM
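Further: viability read after seven days of drug exposure.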
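Wherever viability, T/C is given: 100% = DMSO vehicle control viability.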

C[C@@H](NC(=O)c1ncnc(N)c1Cl)c1ncc(C(=O)Nc2cc(C(F)(F)F)c(Cl)cn2)s1 + C=CC(=O)N1CCN(c2nc(OCC3CCCN3C)nc3c(F)c(-c4nc(N)cc(C)c4C(F)(F)F)c(Cl)cc23)C(C)C1
> 10 µM: IC50 (second compound 0.00316 µM) | IC50 (second compound 0.01 µM) | IC50 (second compound 0.0316 µM) | IC50 (second compound 0.1 µM) | IC50 (second compound 0.316 µM) | IC50 (second compound 1 µM)
inactive: viability, T/C [1] 108% | viability, T/C [2] 109% | viability, T/C [3] 111% | viability, T/C [4] 105% | viability, T/C [5] 99.7% | viability, T/C [6] 75.2% | viability, T/C [7] 121% | viability, T/C [8] 109% | viability, T/C [9] 114% | viability, T/C [10] 103% | viability, T/C [11] 96.2% | viability, T/C [12] 75.9% | viability, T/C [13] 107% | viability, T/C [14] 99.8% | viability, T/C [15] 104% | viability, T/C [16] 101% | viability, T/C [17] 94.4% | viability, T/C [18] 75.9% | viability, T/C [19] 113% | viability, T/C [20] 105% | viability, T/C [21] 99.8% | viability, T/C [22] 101% | viability, T/C [23] 98.4% | viability, T/C [24] 73.1% | viability, T/C [25] 110% | viability, T/C [26] 105% | viability, T/C [27] 108% | viability, T/C [28] 105% | viability, T/C [29] 103% | viability, T/C [30] 76.6% | viability, T/C [31] 108% | viability, T/C [32] 94.4% | viability, T/C [33] 103% | viability, T/C [34] 95.5% | viability, T/C [35] 92.6% | viability, T/C [36] 72.9%

Nc1ccn(C2OC(CO)C(O)C2(F)F)c(=O)n1 (stereo unspecified) + CCn1c(-c2cccnc2C(C)OC)c2c3cc(ccc31)N1CCOC(CC(NC(=O)C(C(C)C)N(C)C(=O)C3(F)CCN(C(=O)C#CC(C)(C)N(C)C)CC3)C(=O)N3CCCC(N3)C(=O)OCC(C)(C)C2)C1
inactive: viability, T/C (second compound 0.000949 µM, first compound 0.00316 µM) 92.7% | viability, T/C (second compound 0.000949 µM, first compound 0.01 µM) 106% | viability, T/C (second compound 0.000949 µM, first compound 0.0316 µM) 98.3% | viability, T/C (second compound 0.000949 µM, first compound 0.1 µM) 82% | viability, T/C (second compound 0.000949 µM, first compound 0.316 µM) 77.3% | viability, T/C (second compound 0.000949 µM, first compound 1 µM) 67.5% | viability, T/C (second compound 0.003 µM, first compound 0.00316 µM) 79.4% | viability, T/C (second compound 0.003 µM, first compound 0.01 µM) 98% | viability, T/C (second compound 0.003 µM, first compound 0.0316 µM) 87.3% | viability, T/C (second compound 0.003 µM, first compound 0.1 µM) 71% | viability, T/C (second compound 0.003 µM, first compound 0.316 µM) 83.5% | viability, T/C (second compound 0.003 µM, first compound 1 µM) 58.6% | viability, T/C (second compound 0.00949 µM, first compound 0.00316 µM) 98.3% | viability, T/C (second compound 0.00949 µM, first compound 0.01 µM) 74.3% | viability, T/C (second compound 0.00949 µM, first compound 0.0316 µM) 87.2% | viability, T/C (second compound 0.00949 µM, first compound 0.1 µM) 64.8% | viability, T/C (second compound 0.00949 µM, first compound 0.316 µM) 82.7% | viability, T/C (second compound 0.00949 µM, first compound 1 µM) 63.5% | viability, T/C (second compound 0.03 µM, first compound 0.00316 µM) 83% | viability, T/C (second compound 0.03 µM, first compound 0.01 µM) 99% | viability, T/C (second compound 0.03 µM, first compound 0.0316 µM) 83.5% | viability, T/C (second compound 0.03 µM, first compound 0.1 µM) 75.9% | viability, T/C (second compound 0.03 µM, first compound 0.316 µM) 83.1% | viability, T/C (second compound 0.03 µM, first compound 1 µM) 74.2% | viability, T/C (second compound 0.0949 µM, first compound 0.00316 µM) 80% | viability, T/C (second compound 0.0949 µM, first compound 0.01 µM) 94.6% | viability, T/C (second compound 0.0949 µM, first compound 0.0316 µM) 99.6% | viability, T/C (second compound 0.0949 µM, first compound 0.1 µM) 73.5% | viability, T/C (second compound 0.0949 µM, first compound 0.316 µM) 77.8% | viability, T/C (second compound 0.0949 µM, first compound 1 µM) 62.2% | viability, T/C (second compound 0.3 µM, first compound 0.00316 µM) 63.5% | viability, T/C (second compound 0.3 µM, first compound 0.01 µM) 97.8% | viability, T/C (second compound 0.3 µM, first compound 0.0316 µM) 80.8% | viability, T/C (second compound 0.3 µM, first compound 0.1 µM) 79.3% | viability, T/C (second compound 0.3 µM, first compound 0.316 µM) 78.7% | viability, T/C (second compound 0.3 µM, first compound 1 µM) 65.7%
> 1 µM: IC50 (second compound 0.000949 µM) | IC50 (second compound 0.003 µM) | IC50 (second compound 0.00949 µM) | IC50 (second compound 0.03 µM) | IC50 (second compound 0.0949 µM) | IC50 (second compound 0.3 µM)

NC1c2ccccc2OC12CCN(c1cnc3c(N4CCCc5ncccc54)n[nH]c3n1)CC2 (stereo unspecified) + C=CC(=O)N1CCN(c2nc(OCC3CCCN3C)nc3c(F)c(-c4nc(N)cc(C)c4C(F)(F)F)c(Cl)cc23)C(C)C1
inactive: viability, T/C [1] 72.3% | viability, T/C [2] 68.1% | viability, T/C [3] 63.8% | viability, T/C [4] 57.2% | viability, T/C [5] 52.4% | viability, T/C [6] 44.9% | viability, T/C [7] 78.6% | viability, T/C [8] 73.3% | viability, T/C [9] 63.3% | viability, T/C [10] 59% | viability, T/C [11] 51.6% | viability, T/C [12] 41% | viability, T/C [13] 80.1% | viability, T/C [14] 73.6% | viability, T/C [15] 71.4% | viability, T/C [16] 56.8% | viability, T/C [17] 50.4% | viability, T/C [18] 43.1% | viability, T/C [19] 78.2% | viability, T/C [20] 74.8% | viability, T/C [21] 60.1% | viability, T/C [22] 56.9% | viability, T/C [23] 46.6% | viability, T/C [24] 41.9% | viability, T/C [25] 74.6% | viability, T/C [26] 68.4% | viability, T/C [27] 64.8% | viability, T/C [28] 60.2% | viability, T/C [29] 49.6% | viability, T/C [30] 41.2% | viability, T/C [31] 70.6% | viability, T/C [32] 62.2% | viability, T/C [33] 53.6% | viability, T/C [34] 52% | viability, T/C [35] 47.2% | viability, T/C [36] 36%
2.16 µM: IC50 (second compound 0.1 µM)
3.37 µM: IC50 (second compound 0.316 µM)
4.31 µM: IC50 (second compound 0.00316 µM)
1.06 µM: IC50 (second compound 1 µM)
2.88 µM: IC50 (second compound 0.0316 µM)
3.21 µM: IC50 (second compound 0.01 µM)
